Measurements: US20260345517A1, “DOSAGE REGIMENS FOR TREATING STARGARDT DISEASE” (Alkeus Pharmaceuticals, Inc., priority 2024, published 2026)
“Also recorded” adds a separate entry of the source.

How the values were obtained:
Assay type in all cases: in vivo, human
[1] = TEASE-1: plasma gildeuretinol (replacement of plasma vitamin A); conditions: for percentage of gildeuretinol over total vitamin A (retinol + gildeuretinol): 8-week pharmacokinetic analysis, plasma
Method: (§1) The Tolerability and Effects of gildeuretinol acetate in Stargardt Disease (Clinical trial group 1 also known as TEASE-1) was a 24-month, multicenter, double-masked, placebo-controlled trial designed to evaluate the efficacy and safety of daily oral gildeuretinol acetate in slowing the growth of atrophic retinal lesions in Stargardt disease patients. The trial was conducted at multiple sites in the United States (NCT02402660).
(§2) Patients 12 years or older, clinically diagnosed with Stargardt disease, with at least one ABCA4 mutation, at least one eye presenting with well-demarcated areas of reduced fundus autofluorescence, and with any visual acuity, were eligible.
(§3) Patients were randomized to gildeuretinol acetate 14 mg capsules, gildeuretinol acetate 24 mg capsules, or placebo capsules, to be taken once daily for one year. After one year, 50% of randomly selected patients receiving placebo were crossed over in a 1:1 ratio to gildeuretinol acetate 14 mg capsules or gildeuretinol acetate 24 mg capsules for a second year.
(§4) Gildeuretinol acetate and placebo capsules were identical appearing capsules. Patients were advised to avoid vitamin A-containing supplements and liver-based products. Fruits and vegetables contain beta-carotene, not preformed vitamin A, and could be consumed without limitation. Trial visits occurred at 8 weeks and 6, 12, 18, and 24 months following screening and randomization.

[2] = system: Stargardt disease patients; test: TEASE-1: growth rate of atrophic retinal lesions by fundus autofluorescence imaging; parameters: Percentage Slowing of Atrophic Retinal Lesion Growth Rate With Gildeuretinol Acetate: concentration or dose not given beside the values; conditions: for effect on retinal degeneration / growth of atrophic retinal lesions (in words): 14 to 24 mg daily, up to 24 months, vs placebo and natural history
Method: as §1, §2, §3, §4
Deidentified retinal images of patients not enrolled in the trial were included as a natural history cohort. This natural history cohort comprised patients diagnosed with Stargardt disease of any age, with two or more longitudinal fundus autofluorescence images taken at least four months apart over a maximum period of 2.5 years.
The prespecified primary efficacy endpoint was the growth rate of the square root area of atrophic retinal lesions measured by fundus autofluorescence retinal imaging comparing gildeuretinol versus the untreated arm (placebo combined with natural history). Only well-delineated and homogeneous retinal atrophic lesions≥0.2 mm^2 with a summed area≥0.5 mm^2 were included in the primary analysis.
The primary endpoint analysis used a linear mixed-effect model (LMEM) with repeated measures, conferring a higher power to detect smaller effects. All observed data, including both eyes, were utilized. Treatment duration was computed as a continuous measure for each visit based on years since randomization. Adjustments for baseline retinal atrophy used the baseline atrophic retinal lesion size as a fixed effect in the LMEM. Additional fixed effects included treatment arm, treatment duration, and interaction between the treatment arm and treatment duration. Random effects included patient, eye, grader to adjust for correlation between eyes within a patient, graders' assessment of an eye, and observations of the same eye over time. A random effect slope term was added to the effect of treatment duration. Patients who crossed over to gildeuretinol acetate after year one were included in the untreated arm from baseline to year one, then in the gildeuretinol acetate arm from […] upon crossing over to gildeuretinol acetate. The full analysis set (FAS) comprised all randomized patients who received at least one dose of the study drug.
Growth rates of atrophic retinal lesions were computed as two segmented lines over the 24-month treatment period; the first segment was between 0 and 6 months, and the second was between 6 and 24 months. All available data between 0 and 24 months was used to compute the slope of each segment. The primary efficacy endpoint was the slope of the second segment. No constraints were imposed on the Y-intercept. All growth rates were calculated on a per-year basis.
No imputations were made for missing data because the LMEM yields valid inferences under the assumption of a missing-at-random mechanism. […]

[3] = system: asymptomatic Stargardt disease patients; test: TEASE-3: best-corrected visual acuity (BCVA); conditions: 14 mg daily
Method: (§5) The tolerability and effects of gildeuretinol acetate in Stargardt Disease (Clinical trial group 3 also known as TEASE-3) study was an open-label, multicenter, case control study designed to evaluate the efficacy and safety of gildeuretinol acetate on the progression of Stargardt disease in asymptomatic individuals. The trial was conducted at multiple sites in the United States.
To assess the safety and efficacy of gildeuretinol acetate in preventing vision loss in asymptomatic individuals, gildeuretinol acetate 14 mg capsules was administered to individuals showing early signs of retinal damage while maintaining approximately 20/20 vision and no subjective loss of vision. […] Based on the above family history and clinical observations, the individuals were likely to develop retinal lesions, loss of photoreceptors, drops in retinal sensitivity, loss of visual acuity, indicating the onset of symptoms, i.e. a progression to the symptomatic phase, including vision loss within two years, mirroring the progression observed in their older siblings.
(§6) Patients received gildeuretinol acetate 14 mg capsules, to be taken orally once daily. Trial visits occurred every 6 months approximately following screening and treatment start visits.
(§7) Disease progression was monitored by best-corrected visual acuity (BCVA) reported in number of Early Treatment Diabetic Retinopathy Study (ETDRS) letters, fundus autofluorescence (FAF) imaging, loss of photoreceptors (as measured by the ellipsoid zone band loss) by optical coherence tomography (OCT) according to literature (1-3) and retinal sensitivity by microperimetry.
(§8) Measurements from the left and right eye for each patient were averaged for each visit to produce a single statistical unit for both eyes(4). For segmented linear regressions, knot times were selected so that three visits were included in the first segment.

[4] = system: asymptomatic Stargardt disease patients; test: TEASE-3: fundus autofluorescence (FAF) imaging; conditions: 14 mg daily, two to four years, three patients
Method: as §5
(§9) To assess the safety and efficacy of gildeuretinol acetate in preventing vision loss in asymptomatic individuals, gildeuretinol acetate 14 mg capsules was administered to individuals showing early signs of retinal damage while maintaining approximately 20/20 vision and no subjective loss of vision. […]
(§10) Disease progression was monitored by best-corrected visual acuity (BCVA) reported in number of Early Treatment Diabetic Retinopathy Study (ETDRS) letters, fundus autofluorescence (FAF) imaging, loss of photoreceptors (as measured by the ellipsoid zone band loss) by optical coherence tomography (OCT) according to literature (1-3) and retinal sensitivity by microperimetry. […]

[5] = system: asymptomatic Stargardt disease patients; test: TEASE-3: photoreceptor loss (ellipsoid zone band loss) by optical coherence tomography; conditions: 14 mg daily
Method: FIG. 5 is a graph showing retinal photoreceptor loss over time in three asymptomatic Stargardt disease patients taking gildeuretinol acetate 14 mg daily. Lines are piecewise linear regressions with a knot time of 6 months and show the mean area of retinal photoreceptor loss of both eyes. Each symbol represents the area of photoreceptor loss for calculated for one eye. To measure photoreceptor loss, the ellipsoid zone layer was evaluated on b-scans acquired on Heidelberg engineering optical coherence tomography (Heidelberg, Germany).
as §5, §6, §7, §8

[6] = system: asymptomatic Stargardt disease patients; test: TEASE-3: disease progression; conditions: 14 mg daily
Method: as §5, §9, §10

CC(=O)OC/C=C(C)/C=C/C=C(C)/C=C/C1=C(C)CCCC1(C)C [gildeuretinol acetate, C20-D3-retinol acetate]
replacement of vitamin A with gildeuretinol ([1]; 14 mg and 24 mg once daily, about 24 months): over 80% | replacement of plasma vitamin A sustained throughout the treatment period ([1]; 14 mg and 24 mg, throughout treatment): greater than 80% | percentage of gildeuretinol over total vitamin A (retinol + gildeuretinol) ([1]; 14 mg): 87% | percentage of gildeuretinol over total vitamin A (retinol + gildeuretinol) ([1]; 24 mg): 92% | replacement of serum vitamin A with gildeuretinol ([1]; 14 to 24 mg daily, within a matter of weeks): more than 80% | patients with over 80% of plasma vitamin A replaced ([1]; after six months): 39 out of 40 | total plasma vitamin A and retinoic acid (combined vitamin A and gildeuretinol-derived forms) versus placebo ([1]; gildeuretinol acetate vs placebo groups): the same | effect on retinal degeneration / growth of atrophic retinal lesions (in words) [2]: met its prespecified primary efficacy endpoint, slowing the mean growth rate of atrophic retinal lesions relative to placebo and natural history; also recorded: slowed the expansion of retinal atrophic lesions; also recorded: slowed the progression of retinal degeneration; also recorded: slows retinal degeneration | effect on retinal degeneration / growth of atrophic retinal lesions (in words) ([2]; listed as Gildeuretinol acetate): met its prespecified primary efficacy endpoint, slowing the mean growth rate of atrophic retinal lesions | Percentage Slowing of Atrophic Retinal Lesion Growth Rate With Gildeuretinol Acetate ([2]; crossover patients: 12 months placebo vs. 12 months treatment): 21% | estimated treatment effect (slowing of atrophic retinal lesion growth) ([2]; depending on the calculation method): 20% to 30 | Percentage Slowing of Atrophic Retinal Lesion Growth Rate With Gildeuretinol Acetate ([2]; excluding 2 natural history cases < 18 years old, 9 natural histories > 60 years old): 21% | Percentage Slowing of Atrophic Retinal Lesion Growth Rate With Gildeuretinol Acetate ([2]; excluding 3 randomized patients with one confirmed mutation): 20% | Percentage Slowing of Atrophic Retinal Lesion Growth Rate With Gildeuretinol Acetate ([2]; excluding 13 natural history cases without any confirmed ABCA4 mutations and 6 with one confirmed mutation): 20% | Percentage Slowing of Atrophic Retinal Lesion Growth Rate With Gildeuretinol Acetate ([2]; excluding 16 natural histories with only two follow up time points): 20% | Percentage Slowing of Atrophic Retinal Lesion Growth Rate With Gildeuretinol Acetate ([2]; excluding natural history, randomized patients only, one slope (mm^2)): 30% | Percentage Slowing of Atrophic Retinal Lesion Growth Rate With Gildeuretinol Acetate ([2]; excluding natural history, randomized patients only, two slopes (mm^2)): 23% | growth rate of atrophic retinal lesions ([2]; gildeuretinol acetate arm (14 mg and 24 mg pooled), square root area, slope 6 to 24 months): 0.19 mm/year | Percentage Slowing of Atrophic Retinal Lesion Growth Rate With Gildeuretinol Acetate ([2]; using a single-slope from 0 to 24 months (mm^2)): 31% | Percentage Slowing of Atrophic Retinal Lesion Growth Rate With Gildeuretinol Acetate ([2]; using untransformed areas of atrophic lesions (mm^2)): 28% | difference in growth rate of atrophic retinal lesions versus control ([2]; vs placebo + natural history, 95% CI 0.03 to 0.07): 0.05 mm/year | BCVA of treated siblings ([3]; 2 to 4 years): 88±4 ETDRS letters | average improvement of BCVA versus untreated siblings ([3]; age-matched untreated siblings): 22±13 letters | average improvement of BCVA versus untreated siblings, lines of vision on the ETDRS eyechart ([3]; age-matched untreated siblings): four | changes by FAF (flecks, autofluorescence, atrophy) [4]: none of the three treated asymptomatic Stargardt disease patients exhibited changes by FAF; also recorded: absence of FAF changes in all three Stargardt disease patients | average area of photoreceptor loss [5]: 0.36±0.32 mm^2 | average area of photoreceptor loss, share of the foveal area [5]: 20% | photoreceptor loss, following years of treatment ([5]; after first six months): trended toward an improvement | photoreceptor loss rate ([5]; first six months, average for two patients): approximately 0.18 mm^2/year | photoreceptor loss, third patient ([5]; full treatment period): no photoreceptors were lost | disease progression / vision loss during treatment (in words) ([6]; 2 to 4 years, asymptomatic patients): arrested loss of vision and retinal pathology; also recorded: no observable disease progression; also recorded: effectively prevented vision loss and further retinal damage; also recorded: no vision loss or disease progression | photoreceptor and retinal sensitivity outcomes with prolonged treatment ([6]; prolonged treatment): trended toward an improvement
